What is called Ki is the equilibrium dissociation constant of an inhibitor or competing ligand from its target.

A short description of series [1]: Solubility determination. As to conditions: for Sol6: pH 6; for Sol7: pH 7. How it is done:
Peptides (as TFA salts) were weighed out in a filter unit (Mini-UniPrep Syringeless Filter 0.45 μm, Whatman), and 0.1 M sodium diphosphate buffer at pH 6.4 or 7.0 was added to achieve 10 mg/ml final concentration. The peptide was dissolved by shaking the filter unit horizontally at 600 rpm for 2 hours at room temperature. The sample was filtered, to remove any insoluble particles and diluted to 1 mg/ml in 50% acetonitrile. The control was prepared by weighing out the corresponding peptide and dissolving it in 50% acetonitrile to final concentration of 1 mg/ml. Both the control and sample were analysed with reversed phase chromatography. The area under the peak of the sample was compared to the control and the solubility was calculated based on that ratio.
The pH was measured and recorded for each sample.
System: UltiMate 3000 UPLC, ThermoFisher
Mobile phase A: 5% acetonitrile, 95% water, 0.03% trifluoracetic acid.
Mobile phase B: 95% acetonitrile, 5% water, 0.03% trifluoracetic acid.
Gradient: 0-100% mobile phase B (2 mins.)
Column temperature: 50° C.

The target of series [2] is T1, Human Neuropeptide Y2 Receptor (Homo sapiens, UniProt P49146).
T1 construct: purchased CHEMICON HTS066M
T1 sequence (P49146 1-381): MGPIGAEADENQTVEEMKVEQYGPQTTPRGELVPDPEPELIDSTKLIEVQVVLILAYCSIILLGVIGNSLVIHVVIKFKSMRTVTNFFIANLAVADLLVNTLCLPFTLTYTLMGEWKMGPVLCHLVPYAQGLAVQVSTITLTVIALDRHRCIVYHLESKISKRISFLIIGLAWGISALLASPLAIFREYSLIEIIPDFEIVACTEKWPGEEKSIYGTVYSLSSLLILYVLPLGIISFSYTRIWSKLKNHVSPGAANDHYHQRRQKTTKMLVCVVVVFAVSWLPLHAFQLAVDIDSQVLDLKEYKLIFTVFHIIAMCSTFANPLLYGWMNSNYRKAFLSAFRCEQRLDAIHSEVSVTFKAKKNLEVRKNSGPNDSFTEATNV
Nature of the series: Radioligand binding competition assay (RLB). The note with it: Table 3, 125I-PYY(1-36) competition; read-out: Ki. How it is done:
The filtration RLB assay was carried out in 96-well plates in a final volume of 100 μl per well. Freeze-dried test peptides were dissolved in 100% dimethyl sulfoxide (DMSO) to stock solutions of 1 mM and serial dilutions were performed in assay buffer (50 mM HEPES, 5 mM MgCl2, 1 mM CaCl2, pH 7.4) containing 0.2% ovalbumin. […] Next, 80 μL membranes (HTS066M, ChemiSCREEN™ Human Neuropeptide Y2 Receptor Membrane Preparation, CHEMICON) were added to each well to give a final protein concentration of 0.5 μg/well. The plates were sealed and incubated at room temperature for 2 hours in a plate shaker set at 400 rpm. The incubation was stopped by vacuum filtration onto 0.5% polyethylene amine (PE) presoaked GF/C filters using a 96-well FilterMate™ harvester (Perkin Elmer) followed by four washes with 300 μl/well ice-cold wash buffer (50 mM HEPES, 500 mM NaCl, pH7.4). Filter plates were then dried for 60 min at room temperature and the bottom of the plates was sealed with backing tape UniFilter-96. Finally, 50 μl/well scintillation counter cocktail (Microscint20, Packard) was added and the radioactivity was counted in the Packard TopCount NXT scintillation counter. IC50 values (the half maximal inhibitory concentration of the agonist) were calculated by nonlinear regression analysis of sigmoidal dose-response curves.

Regarding `CC(C)CC(=O)N[C@@H](C)C(=O)N1CCC[C@H]1C(=O)N[C@@H](CCC(=O)O)C(=O)N[C@@H](CCCCNC(=O)CCCCCNC(=O)CC[C@H](NC(=O)CCCCCCCCCCCCCCCCC(=O)O)C(=O)O)C(=O)N1CCC[C@H]1C(=O)N[C@@H](CCC(=O)O)C(=O)N[C@@H](CCC(=O)O)C(=O)N[C@@H](C)C(=O)N[C@@H](C)C(=O)N[C@@H](CCC(=O)O)C(=O)N1CCC[C@H]1C(=O)N[C@@H](CCC(=O)O)C(=O)N[C@@H](CCC(=O)O)C(=O)N[C@@H](CC(C)C)C(=O)N[C@@H](CCC(N)=O)C(=O)N[C@@H](CCCNC(=N)N)C(=O)N[C@@H](Cc1ccc(O)cc1)C(=O)N[C@@H](Cc1ccc(O)cc1)C(=O)N[C@H](C(=O)N[C@@H](CO)C(=O)N[C@@H](CC(C)C)C(=O)N[C@@H](CCCNC(=N)N)C(=O)N[C@@H](Cc1c[nH]cn1)C(=O)N[C@@H](Cc1ccc(O)cc1)C(=O)N[C@@H](Cc1ccc(O)cc1)C(=O)N[C@@H](CC(N)=O)C(=O)N[C@@H](Cc1c[nH]c2ccccc12)C(=O)N[C@@H](CC(C)C)C(=O)N[C@H](C(=O)N[C@@H](CCCNC(=N)N)C(=O)N[C@@H](CCC(N)=O)C(=O)N[C@@H](CCCNC(=N)N)C(=O)N[C@@H](Cc1ccc(O)cc1)C(N)=O)[C@@H](C)O)C(C)C` [Compound 4, N{alpha-4}-(3-methylbutanoyl)-N{epsilon-7}-(6-[(4S)-4-carboxy-4-(17-carboxyheptadecanamido)butanamido]hexanoyl)[4A,7K,9E,11A,13E,18Q,22V,28Y,30W,31L]-hPYY(4-36)], in series [1], the “Sol6” value is 10.0 mg/mL and the “Sol7” value was found to be 10.0 mg/mL. The Ki in series [2] came out at 4.65 nM.
On to `CC(C)CC(=O)N[C@@H](C)C(=O)N1CCC[C@H]1C(=O)N[C@@H](C)C(=O)N[C@@H](CCCCNC(=O)CCCCCNC(=O)CC[C@H](NC(=O)CCCCCCCCCCCCCCCCC(=O)O)C(=O)O)C(=O)N1CCC[C@H]1C(=O)N[C@@H](CCC(=O)O)C(=O)N[C@@H](CCC(=O)O)C(=O)N[C@@H](CC(=O)O)C(=O)N[C@@H](C)C(=O)N[C@@H](CO)C(=O)N1CCC[C@H]1C(=O)N[C@@H](CCC(=O)O)C(=O)N[C@@H](CCC(=O)O)C(=O)N[C@@H](CC(C)C)C(=O)N[C@@H](CCC(N)=O)C(=O)N[C@@H](CCCNC(=N)N)C(=O)N[C@@H](CCC(N)=O)C(=O)N[C@@H](Cc1ccc(O)cc1)C(=O)N[C@H](C(=O)N[C@@H](CO)C(=O)N[C@@H](CC(C)C)C(=O)N[C@@H](CCCNC(=N)N)C(=O)N[C@@H](Cc1c[nH]cn1)C(=O)N[C@@H](Cc1ccc(O)cc1)C(=O)N[C@@H](Cc1ccc(O)cc1)C(=O)N[C@@H](CC(N)=O)C(=O)N[C@@H](Cc1c[nH]c2ccccc12)C(=O)N[C@@H](CC(C)C)C(=O)N[C@H](C(=O)N[C@@H](CCCNC(=N)N)C(=O)N[C@@H](CCC(N)=O)C(=O)N[C@@H](CCCNC(=N)N)C(=O)N[C@@H](Cc1ccc(O)cc1)C(N)=O)[C@@H](C)O)C(C)C` [Compound 5, N{alpha-4}-(3-methylbutanoyl)-N{epsilon-7}-(6-[(4S)-4-carboxy-4-(17-carboxyheptadecanamido)butanamido]hexanoyl)[4A,6A,7K,9E,18Q,20Q,22V,28Y,30W,31L]-hPYY(4-36)], for which, in series [1], the “Sol6” value is 3.6 mg/mL and the “Sol7” value stood at 8.8 mg/mL. The Ki in series [2] turned out to be 12.7 nM.
For `CC(C)CC(=O)N[C@@H](C)C(=O)N1CCC[C@H]1C(=O)N[C@@H](CCC(=O)O)C(=O)N[C@@H](CCCCNC(=O)CCCCCNC(=O)CC[C@H](NC(=O)CCCCCCCCCCCCCCCCC(=O)O)C(=O)O)C(=O)N1CCC[C@H]1C(=O)N[C@@H](CCC(=O)O)C(=O)N[C@@H](CCC(=O)O)C(=O)N[C@@H](CC(=O)O)C(=O)N[C@@H](CCC(=O)O)C(=O)N[C@H](C(=O)N1CCC[C@H]1C(=O)N[C@@H](CCC(=O)O)C(=O)N[C@@H](CCC(=O)O)C(=O)N[C@@H](CC(C)C)C(=O)N[C@@H](CCC(N)=O)C(=O)N[C@@H](CCCNC(=N)N)C(=O)N[C@@H](Cc1ccc(O)cc1)C(=O)N[C@@H](Cc1ccc(O)cc1)C(=O)N[C@H](C(=O)N[C@@H](CO)C(=O)N[C@@H](CC(C)C)C(=O)N[C@@H](CCCNC(=N)N)C(=O)N[C@@H](Cc1c[nH]cn1)C(=O)N[C@@H](Cc1ccc(O)cc1)C(=O)N[C@@H](Cc1ccc(O)cc1)C(=O)N[C@@H](CC(N)=O)C(=O)N[C@@H](Cc1c[nH]c2ccccc12)C(=O)N[C@@H](CC(C)C)C(=O)N[C@H](C(=O)N[C@@H](CCCNC(=N)N)C(=O)N[C@@H](CCC(N)=O)C(=O)N[C@@H](CCCNC(=N)N)C(=O)N[C@@H](Cc1ccc(O)cc1)C(N)=O)[C@@H](C)O)C(C)C)[C@@H](C)O` [Compound 8, N{alpha-4}-(3-methylbutanoyl)-N{epsilon-7}-(6-[(4S)-4-carboxy-4-(17-carboxyheptadecanamido)butanamido]hexanoyl)[4A,7K,9E,12E,13T,18Q,22V,28Y,30W,31L]-hPYY(4-36)] the same measures were 9.7 mg/mL, 9.6 mg/mL and 106 nM.
The like results for `CC(C)CC(=O)N[C@@H](C)C(=O)N1CCC[C@H]1C(=O)N[C@@H](CCC(=O)O)C(=O)N[C@@H](CCCCNC(=O)CCCCCNC(=O)CC[C@H](NC(=O)CCCCCCCCCCCCCCCCC(=O)O)C(=O)O)C(=O)N1CCC[C@H]1C(=O)N[C@@H](CCC(=O)O)C(=O)N[C@@H](CCC(=O)O)C(=O)N[C@@H](CCC(N)=O)C(=O)N[C@@H](C)C(=O)N[C@H](C(=O)N1CCC[C@H]1C(=O)N[C@@H](CCC(=O)O)C(=O)N[C@@H](CCC(=O)O)C(=O)N[C@@H](CC(C)C)C(=O)N[C@@H](CCC(N)=O)C(=O)N[C@@H](CCCNC(=N)N)C(=O)N[C@@H](Cc1ccc(O)cc1)C(=O)N[C@@H](Cc1ccc(O)cc1)C(=O)N[C@H](C(=O)N[C@@H](CO)C(=O)N[C@@H](CC(C)C)C(=O)N[C@@H](CCCNC(=N)N)C(=O)N[C@@H](Cc1c[nH]cn1)C(=O)N[C@@H](Cc1ccc(O)cc1)C(=O)N[C@@H](Cc1ccc(O)cc1)C(=O)N[C@@H](CC(N)=O)C(=O)N[C@@H](Cc1c[nH]c2ccccc12)C(=O)N[C@@H](CC(C)C)C(=O)N[C@H](C(=O)N[C@@H](CCCNC(=N)N)C(=O)N[C@@H](CCC(N)=O)C(=O)N[C@@H](CCCNC(=N)N)C(=O)N[C@@H](Cc1ccc(O)cc1)C(N)=O)[C@@H](C)O)C(C)C)[C@@H](C)O` [Compound 9, N{alpha-4}-(3-methylbutanoyl)-N{epsilon-7}-(6-[(4S)-4-carboxy-4-(17-carboxyheptadecanamido)butanamido]hexanoyl)[4A,7K,9E,11Q,13T,18Q,22V,28Y,30W,31L]-hPYY(4-36)] were, in that order, 9.7 mg/mL, 9.9 mg/mL and 3.32 nM.
For `CC(C)CC(=O)N[C@@H](C)C(=O)N1CCC[C@H]1C(=O)N[C@@H](CCC(=O)O)C(=O)N[C@@H](CCCCNC(=O)CCCCCNC(=O)CC[C@H](NC(=O)CCCCCCCCCCCCCCCCC(=O)O)C(=O)O)C(=O)N1CCC[C@H]1C(=O)N[C@@H](CCC(=O)O)C(=O)N[C@@H](C)C(=O)N[C@@H](CC(=O)O)C(=O)N[C@@H](C)C(=O)N[C@@H](CO)C(=O)N1CCC[C@H]1C(=O)N[C@@H](CCC(=O)O)C(=O)N[C@@H](CCC(=O)O)C(=O)N[C@H](C(=O)N[C@@H](CCC(N)=O)C(=O)N[C@@H](CCCNC(=N)N)C(=O)N[C@@H](Cc1ccc(O)cc1)C(=O)N[C@@H](Cc1ccc(O)cc1)C(=O)N[C@H](C(=O)N[C@@H](CO)C(=O)N[C@@H](CC(C)C)C(=O)N[C@@H](CCCNC(=N)N)C(=O)N[C@@H](Cc1c[nH]cn1)C(=O)N[C@@H](Cc1ccc(O)cc1)C(=O)N[C@@H](Cc1ccc(O)cc1)C(=O)N[C@@H](CC(N)=O)C(=O)N[C@@H](Cc1c[nH]c2ccccc12)C(=O)N[C@@H](CC(C)C)C(=O)N[C@H](C(=O)N[C@@H](CCCNC(=N)N)C(=O)N[C@@H](CCC(N)=O)C(=O)N[C@@H](CCCNC(=N)N)C(=O)N[C@@H](Cc1ccc(O)cc1)C(N)=O)[C@@H](C)O)C(C)C)[C@@H](C)O` [Compound 13, N{alpha-4}-(3-methylbutanoyl)-N{epsilon-7}-(6-[(4S)-4-carboxy-4-(17-carboxyheptadecanamido)butanamido]hexanoyl)[4A,7K,9E,10A,17T,18Q,22V,28Y,30W,31L]-hPYY(4-36)] the same measures were 10.0 mg/mL, 10.0 mg/mL and 1.53 nM.

Values taken from patent US12391737B2, “Soluble NPY2 receptor agonists” (Boehringer Ingelheim International GmbH, priority 2020, dated 2025).
